# Reference: patent publication US20260199492A1, “PSD-95 DOMAIN INHIBITOR, AND PREPARATION METHOD THEREFOR AND USE THEREOF” (SHENZHEN SALUBRIS PHARMACEUTICALS CO., LTD, priority 2023, published 2026)
# Square brackets hold non-standard residues; d marks the D form. Peptide text beside a SMILES is read from it. Arg(Me) = CNC(=N)NCCC[C@H](N)C(=O)O
# Tests used:
# in vitro = conditions: human, plasma
# Procedure: (§1) • Plasma: Human plasma is commercially available. • Reagents: DMSO (dimethyl sulfoxide), disodium hydrogen phosphate, sodium dihydrogen phosphate, methanol, formic acid, and propranolol (internal standard) are commercially available. • Instrument: AB SCIEX QTRAP 5500+.
# (§2) 5 μL of stock solution (10 mM) was diluted with 495 μL of 0.05 M sodium phosphate buffer to 100 μM of dosing solution. The final concentration of tested drug for incubation was 10 μM.
# (§3) A certain volume (e.g., 27 μL or 24 μL) of plasma was added into a 96-well plate. An appropriate volume of the internal standard working solution (e.g., 150 μL) was immediately added to precipitate. […] This was performed in duplicate.
# (§4) Then, an appropriate amount of plasma (e.g., 27 μL or 24 μL) was added at the designed time points (e.g., 5 min, 15 min, 30 min, 60 min, and 120 min, etc.), and the parallel replicate wells were performed at each time point. […] The reaction was terminated by adding an appropriate amount of internal standard working solution (e.g., 150 μL) at the end of the time, and the mixture was mixed thoroughly.
# (§5) The mixture was centrifuged at 4000 rpm for 15 min. A certain amount of the supernatant was taken, mixed with a certain amount of water, and then subjected to LC/MS/MS analysis. LC-MS detection conditions were as follows: • Chromatography column: YMC Triart C18, 50*3.0 mm, 2.1 μm. • Mobile phase: Gradient elution was performed using water (0.1% formic acid)-acetonitrile according to the table below.
# (§6) The relative content of drug at each time point was calculated using the initial 0 point as 100%. The half-life of the drug was calculated by plotting “relative drug content” against “incubation time” using GraphPad Prism 5 software.
# [1] = In vitro stability experiment of cell-penetrating peptides in human plasma
# Procedure: as §2, §3, §4, §5, §6
# PDZ1-2 of PSD95 = PDZ1-2 of PSD95 (Homo sapiens, UniProt P78352); experiment: Fluorescence polarization competition binding assay of PDZ1-2 with probe 5-FAM-NA-1
# [2] = Toxicological experiment: serum UREA and CREA after 5 days of i.v. dosing; format: in vivo, SD rats
# Procedure: The compounds of Examples 1-8 were accurately weighed into suitable EP tubes, and the vehicle (saline) was added to formulate a solution of a concentration of 15 mg/mL. The solution was filtered using a 0.2 μm filter for future use.
# A total of 18 male SD rats of 6-7 weeks of age were used for test. After the animal quarantine and acclimatization period, the animals were randomly divided into 6 groups according to their body weights measured before grouping, vehicle control group (saline) as well as example compounds groups, 3 animals/group. Using the above prepared solution, the animal was administered intravenously via the tail vein at a dosage of 30 mg/kg and a dosing volume of 2 mL/kg. The dosing volume for each animal was calculated according to the body weight. Administration was performed once daily for 5 consecutive days. After 2 h of administration on day 5, the animals were deeply anesthetized by intraperitoneal injection of sodium pentobarbital. The thoracic cavity was opened, and blood was collected from the abdominal aorta into blood collection tubes containing inert separation gel and coagulant. The serum was collected by centrifugation (4000 rpm, 10 min) after about 1 h of resting. The concentrations of UREA and CREA in the serum were detected using a biochemical analyzer. The percentage change of each example compound relative to the vehicle control group was calculated using the formula: %=(Concentration of example compound−Concentration of vehicle control group)/Concentration of vehicle control group.
# [3] = In vitro plasma stability experiment (compounds), without or with tPA; conditions: human, 37° C., initial concentration 10 μM
# Procedure: as §1, §2, §3, §4, §5, §6
# [4] = plasma, With tPA T1/2, cell-penetrating peptide, human plasma, initial concentration 10 μM, with tPA
# [5] = plasma, Without tPA T1/2, cell-penetrating peptide, human plasma, initial concentration 10 μM, without tPA
# [6] = With tPA T1/2, human plasma, with rt-PA […]
# [7] = Without tPA T1/2, human plasma, without tPA
# [8] = male SD rats, 30 mg/kg i.v. once daily for 5 days, serum 2 h after dosing on day 5
# Chain of PDZ1-2 of PSD95 (P78352 61-249 limits assumed): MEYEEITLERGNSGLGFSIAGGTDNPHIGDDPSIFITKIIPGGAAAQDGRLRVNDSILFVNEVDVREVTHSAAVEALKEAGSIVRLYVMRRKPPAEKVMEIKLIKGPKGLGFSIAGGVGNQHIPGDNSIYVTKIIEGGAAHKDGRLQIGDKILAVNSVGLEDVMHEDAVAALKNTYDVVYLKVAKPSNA
structure (smiles),measurement,setting,value
CC[C@H](C)[C@H](NC(=O)[C@H](CO)NC(=O)[C@H](CO)NC(=O)[C@H](CC(C)C)NC(=O)[C@@H](CCCCN)NC(=O)[C@H](CCCNC(=N)N)NC(=O)[C@H](CCCNC(=N)N)NC(=O)[C@H](CCCNC(=N)NC)NC(=O)[C@H](CCC(=O)O)NC(=O)[C@@H](CCCNC(=N)N)NC(=O)[C@H](CCCNC(=N)N)NC(=O)[C@H](CCCCN)NC(=O)[C@H](CCCCN)NC(=O)[C@@H](CCCNC(=N)N)NC(=O)CNC(=O)[C@@H](N)Cc1ccc(O)cc1)C(=O)N[C@@H](CCC(=O)O)C(=O)N[C@@H](CO)C(=O)N[C@@H](CC(=O)O)C(=O)N[C@H](C(=O)O)C(C)C [Compound I1] (H-YG[dR]KKR[dR]E[Arg(Me)]RR[dK]LSSIESDV-OH),half-life,in vitro; With tPA T1/2,9.18 h
same,half-life,in vitro; Without tPA T1/2,18.6 h
N=C(N)NCCC[C@H](NC(=O)[C@@H](CCCNC(=N)N)NC(=O)[C@H](CCC(N)=O)NC(=O)[C@@H](CCCNC(=N)N)NC(=O)[C@H](CCCNC(=N)N)NC(=O)[C@H](CCCCN)NC(=O)[C@H](CCCCN)NC(=O)[C@@H](CCCNC(=N)N)NC(=O)CNC(=O)[C@@H](N)Cc1ccc(O)cc1)C(=O)O [TAT-3] (H-YG[dR]KKR[dR]Q[dR]R-OH),half-life at 10 μM,[1]; plasma,21.7 h
same,half-life at 10 μM,[1]; plasma with added rt-PA,27.5 h
"CC[C@H](C)[C@H](NC(=O)[C@H](CO)NC(=O)[C@H](CO)NC(=O)[C@H](CC(C)C)NC(=O)[C@@H](CCCCN)NC(=O)[C@H](CCCNC(=N)N)NC(=O)[C@H](CCCNC(=N)N)NC(=O)[C@@H](CCCNC(=N)N)NC(=O)[C@H](CCC(N)=O)NC(=O)[C@@H](CCCNC(=N)N)NC(=O)[C@H](CCCNC(=N)N)NC(=O)[C@H](CCCCN)NC(=O)[C@H](CCCCN)NC(=O)[C@@H](CCCNC(=N)N)NC(=O)CNC(=O)[C@@H](N)Cc1ccc(O)cc1)C(=O)N[C@@H](CCC(=O)O)C(=O)N[C@@H](CO)C(=O)N[C@@H](CC(=O)O)C(=O)N[C@H](C(=O)O)C(C)C [NoNo-42, reference compound] (H-YG[dR]KKR[dR]Q[dR]RR[dK]LSSIESDV-OH; N-terminus and C-terminus assumed)",IC50,PDZ1-2 of PSD95,9.71 µM
same,half-life at 10 μM,in vitro,6.88 h
same,"CREA, percentage change compared to vehicle control group","[2]; rat, in vivo, iv, 30 mg/kg",308.8%
same,"UREA, percentage change compared to vehicle control group","[2]; rat, in vivo, iv, 30 mg/kg",237.9%
N=C(N)NCCC[C@H](NC(=O)[C@H](CCCNC(=N)N)NC(=O)[C@@H](CCCNC(=N)N)NC(=O)[C@H](CCC(=O)O)NC(=O)[C@@H](CCCNC(=N)N)NC(=O)[C@H](CCCNC(=N)N)NC(=O)[C@H](CCCCN)NC(=O)[C@H](CCCCN)NC(=O)[C@@H](CCCNC(=N)N)NC(=O)CNC(=O)[C@@H](N)Cc1ccc(O)cc1)C(=O)O [TAT-4],half-life at 10 μM,[1]; [4],14.9 h
same,half-life at 10 μM,[1]; [5],11.9 h
CC[C@H](C)[C@H](NC(=O)CCOCCOCCN(CCOCCOCCC(=O)N[C@H](C(=O)N[C@@H](CCC(=O)O)C(=O)N[C@H](C(=O)N[C@@H](CC(=O)O)C(=O)N[C@H](C(=O)O)C(C)C)[C@@H](C)O)[C@@H](C)CC)C(=O)[C@H](CCCNC(=N)N)NC(=O)[C@H](CCCNC(=N)N)NC(=O)[C@@H](CCCNC(=N)N)NC(=O)[C@H](CCC(N)=O)NC(=O)[C@@H](CCCNC(=N)N)NC(=O)[C@H](CCCNC(=N)N)NC(=O)[C@H](CCCCN)NC(=O)[C@H](CCCCN)NC(=O)[C@@H](CCCNC(=N)N)NC(=O)CNC(=O)[C@@H](N)Cc1ccc(O)cc1)C(=O)N[C@@H](CCC(=O)O)C(=O)N[C@H](C(=O)N[C@@H](CC(=O)O)C(=O)N[C@H](C(=O)O)C(C)C)[C@@H](C)O [Compound 43],half-life,"in vitro; With tPA T1/2, human plasma, 37° C., initial concentration 10 μM, with rt-PA […]",20.5 h
same,half-life,"in vitro; Without tPA T1/2, human plasma, 37° C., initial concentration 10 μM, without tPA",> 33.3 h
CNC(=N)NCCC[C@H](NC(=O)[C@H](CCC(N)=O)NC(=O)[C@@H](CCCNC(=N)N)NC(=O)[C@H](CCCNC(=N)N)NC(=O)[C@H](CCCCN)NC(=O)[C@H](CCCCN)NC(=O)[C@@H](CCCNC(=N)N)NC(=O)CNC(=O)[C@@H](N)Cc1ccc(O)cc1)C(=O)N[C@@H](CCCNC(=N)N)C(=O)N[C@@H](CCCNC(=N)N)C(=O)O [TAT-5],half-life at 10 μM,[1]; [4],12.3 h
same,half-life at 10 μM,[1]; [5],> 33.3 h
CC[C@H](C)[C@H](NC(=O)[C@H](CO)NC(=O)[C@H](CO)NC(=O)[C@H](CC(C)C)NC(=O)[C@@H](CCCCN)NC(=O)[C@H](CCCNC(=N)N)NC(=O)[C@H](CCCNC(=N)N)NC(=O)[C@H](CCCNC(=N)NC)NC(=O)[C@H](CCC(=O)O)NC(=O)[C@@H](CCCNC(=N)N)NC(=O)[C@H](CCCNC(=N)N)NC(=O)[C@H](CCCCN)NC(=O)[C@H](CCCCN)NC(=O)[C@](C)(CCCNC(=N)N)NC(=O)CNC(=O)[C@@H](N)Cc1ccc(O)cc1)C(=O)N[C@@H](CCC(=O)O)C(=O)N[C@@H](CO)C(=O)N[C@@H](CC(=O)O)C(=O)N[C@H](C(=O)O)C(C)C (relative stereo) [Compound I15],IC50,PDZ1-2 of PSD95,7.89 µM
same,half-life,in vitro; With tPA T1/2,27.2 h
same,half-life,in vitro; Without tPA T1/2,> 33.3 h
CC[C@H](C)[C@H](NC(=O)[C@H](CO)NC(=O)[C@H](CO)NC(=O)[C@H](CC(C)C)NC(=O)[C@@H](CCCCN)NC(=O)[C@H](CCCNC(=N)N)NC(=O)[C@H](CCCNC(=N)N)NC(=O)[C@H](CCCNC(=N)NC)NC(=O)[C@H](CCC(N)=O)NC(=O)[C@@H](CCCNC(=N)N)NC(=O)[C@H](CCCNC(=N)N)NC(=O)[C@H](CCCCN)NC(=O)[C@H](CCCCN)NC(=O)[C@](C)(CCCNC(=N)N)NC(=O)CNC(=O)[C@@H](N)Cc1ccc(O)cc1)C(=O)N[C@@H](CCC(=O)O)C(=O)N[C@@H](CO)C(=O)N[C@@H](CC(=O)O)C(=O)N[C@H](C(=O)O)C(C)C (relative stereo) [Compound I13],IC50,PDZ1-2 of PSD95,6.33 µM
same,half-life at 10 μM,[3]; [6],14.5 h
same,half-life at 10 μM,[3]; [7],10.7 h
CNC(=N)NCCC[C@H](NC(=O)[C@H](CCC(=O)O)NC(=O)[C@@H](CCCNC(=N)N)NC(=O)[C@H](CCCNC(=N)N)NC(=O)[C@H](CCCCN)NC(=O)[C@H](CCCCN)NC(=O)[C@@H](CCCNC(=N)N)NC(=O)CNC(=O)[C@@H](N)Cc1ccc(O)cc1)C(=O)N[C@@H](CCCNC(=N)N)C(=O)N[C@@H](CCCNC(=N)N)C(=O)O [TAT-6],half-life at 10 μM,[1]; [4],4.3 h
same,half-life at 10 μM,[1]; [5],2.83 h
"N=C(N)NCCC[C@H](NC(=O)[C@H](CCCNC(=N)N)NC(=O)[C@H](CCCNC(=N)N)NC(=O)[C@H](CCC(N)=O)NC(=O)[C@H](CCCNC(=N)N)NC(=O)[C@H](CCCNC(=N)N)NC(=O)[C@H](CCCCN)NC(=O)[C@H](CCCCN)NC(=O)[C@H](CCCNC(=N)N)NC(=O)CNC(=O)[C@@H](N)Cc1ccc(O)cc1)C(=O)O [TAT-1, reference compound]",half-life at 10 μM,[1]; [5],1.52 h
CC[C@H](C)[C@H](NC(=O)CCOCCOCCN(CCOCCOCCC(=O)N[C@H](C(=O)N[C@@H](CCC(=O)O)C(=O)N[C@H](C(=O)N[C@@H](CC(=O)O)C(=O)N[C@H](C(=O)O)C(C)C)[C@@H](C)O)[C@@H](C)CC)C(=O)[C@H](CCCNC(=N)N)NC(=O)[C@H](CCCNC(=N)N)NC(=O)[C@@H](CCCNC(=N)N)NC(=O)[C@H](CCC(=O)O)NC(=O)[C@@H](CCCNC(=N)N)NC(=O)[C@H](CCCNC(=N)N)NC(=O)[C@H](CCCCN)NC(=O)[C@H](CCCCN)NC(=O)[C@@H](CCCNC(=N)N)NC(=O)CNC(=O)[C@@H](N)Cc1ccc(O)cc1)C(=O)N[C@@H](CCC(=O)O)C(=O)N[C@H](C(=O)N[C@@H](CC(=O)O)C(=O)N[C@H](C(=O)O)C(C)C)[C@@H](C)O [Compound 65],half-life at 10 μM,[3]; [6],10.5 h
same,half-life at 10 μM,[3]; [7],> 33.3 h
same,"CREA, percentage change compared to vehicle control group",[2]; [8],−3.3%
same,"UREA, percentage change compared to vehicle control group",[2]; [8],23.7%
